Key:
[1] = biological target: Metabotropic glutamate receptor 8 (Rattus norvegicus) (UniProt P70579); experiment: Maximal effect obtained with 1 mM of the drug expressed as percent of maxiaml effect of glutamate in rat at mGlu8a receptor expressed in HEK293 cells; format: functional, cell-based
[2] = biological target: Metabotropic glutamate receptor 2 (Rattus norvegicus) (UniProt P31421); experiment: (§1) Maximal effect obtained with 1 mM of the drug expressed as percent of maxiaml effect of glutamate in rat at mGlu2 receptor expressed in HEK293 cells; format: functional, cell-based
[3] = biological target: Metabotropic glutamate receptor 1 (Rattus norvegicus) (UniProt P23385); experiment: Maximal effect obtained with 1 mM of the drug expressed as percent of maxiaml effect of glutamate in rat at mGlu1a receptor expressed in HEK293 cells; format: functional, cell-based
[4] = biological target: Metabotropic glutamate receptor 2 (Rattus norvegicus, UniProt P31421); experiment: Agonist activity in rat at mGlu2 receptor expressed in HEK293 cells; format: functional, cell-based
[5] = biological target: T1, Metabotropic glutamate receptor 8 (Rattus norvegicus, UniProt P70579); experiment: Agonist activity in rat at mGlu8a receptor expressed in HEK293 cells; format: functional, cell-based
[6] = biological target: Metabotropic glutamate receptor 1 (Rattus norvegicus, UniProt P23385); experiment: Agonist activity in rat at mGlu1a receptor expressed in HEK293 cells; format: functional, cell-based
[7] = biological target: Metabotropic glutamate receptor 2 (Rattus norvegicus) (UniProt P31421); experiment: as §1; format: cell-based
[8] = biological target: T1, Metabotropic glutamate receptor 8; experiment: Agonist activity in rat at Metabotropic glutamate receptor 8 expressed in HEK293 cells; format: functional, cell-based

T1 sequence (P70579 whole entry): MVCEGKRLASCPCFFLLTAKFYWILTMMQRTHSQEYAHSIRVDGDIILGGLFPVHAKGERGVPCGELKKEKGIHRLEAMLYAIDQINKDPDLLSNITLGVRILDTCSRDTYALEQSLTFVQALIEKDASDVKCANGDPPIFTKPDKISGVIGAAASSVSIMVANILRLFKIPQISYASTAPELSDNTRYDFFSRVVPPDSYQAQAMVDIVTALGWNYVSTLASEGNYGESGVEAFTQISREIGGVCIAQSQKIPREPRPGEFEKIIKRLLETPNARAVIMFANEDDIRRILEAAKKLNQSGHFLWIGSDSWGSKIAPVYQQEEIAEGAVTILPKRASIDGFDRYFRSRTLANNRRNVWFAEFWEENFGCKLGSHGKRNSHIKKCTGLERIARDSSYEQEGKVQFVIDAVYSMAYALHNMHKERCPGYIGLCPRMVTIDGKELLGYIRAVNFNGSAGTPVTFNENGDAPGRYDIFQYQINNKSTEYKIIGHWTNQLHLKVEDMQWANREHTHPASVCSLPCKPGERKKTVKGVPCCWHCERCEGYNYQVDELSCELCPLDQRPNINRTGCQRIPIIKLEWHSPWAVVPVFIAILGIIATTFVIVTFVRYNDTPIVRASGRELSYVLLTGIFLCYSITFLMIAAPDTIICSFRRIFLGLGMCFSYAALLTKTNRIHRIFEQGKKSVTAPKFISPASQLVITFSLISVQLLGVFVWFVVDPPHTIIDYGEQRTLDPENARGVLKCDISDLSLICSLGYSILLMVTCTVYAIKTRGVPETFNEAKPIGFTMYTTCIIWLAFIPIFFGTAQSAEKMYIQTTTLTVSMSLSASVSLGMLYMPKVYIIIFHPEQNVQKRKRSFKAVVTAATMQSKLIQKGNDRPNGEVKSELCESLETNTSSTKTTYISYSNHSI
Sequence of Metabotropic glutamate receptor 8 (Rattus norvegicus) (P70579 whole entry): as above
Sequence of Metabotropic glutamate receptor 1 (P23385 whole entry): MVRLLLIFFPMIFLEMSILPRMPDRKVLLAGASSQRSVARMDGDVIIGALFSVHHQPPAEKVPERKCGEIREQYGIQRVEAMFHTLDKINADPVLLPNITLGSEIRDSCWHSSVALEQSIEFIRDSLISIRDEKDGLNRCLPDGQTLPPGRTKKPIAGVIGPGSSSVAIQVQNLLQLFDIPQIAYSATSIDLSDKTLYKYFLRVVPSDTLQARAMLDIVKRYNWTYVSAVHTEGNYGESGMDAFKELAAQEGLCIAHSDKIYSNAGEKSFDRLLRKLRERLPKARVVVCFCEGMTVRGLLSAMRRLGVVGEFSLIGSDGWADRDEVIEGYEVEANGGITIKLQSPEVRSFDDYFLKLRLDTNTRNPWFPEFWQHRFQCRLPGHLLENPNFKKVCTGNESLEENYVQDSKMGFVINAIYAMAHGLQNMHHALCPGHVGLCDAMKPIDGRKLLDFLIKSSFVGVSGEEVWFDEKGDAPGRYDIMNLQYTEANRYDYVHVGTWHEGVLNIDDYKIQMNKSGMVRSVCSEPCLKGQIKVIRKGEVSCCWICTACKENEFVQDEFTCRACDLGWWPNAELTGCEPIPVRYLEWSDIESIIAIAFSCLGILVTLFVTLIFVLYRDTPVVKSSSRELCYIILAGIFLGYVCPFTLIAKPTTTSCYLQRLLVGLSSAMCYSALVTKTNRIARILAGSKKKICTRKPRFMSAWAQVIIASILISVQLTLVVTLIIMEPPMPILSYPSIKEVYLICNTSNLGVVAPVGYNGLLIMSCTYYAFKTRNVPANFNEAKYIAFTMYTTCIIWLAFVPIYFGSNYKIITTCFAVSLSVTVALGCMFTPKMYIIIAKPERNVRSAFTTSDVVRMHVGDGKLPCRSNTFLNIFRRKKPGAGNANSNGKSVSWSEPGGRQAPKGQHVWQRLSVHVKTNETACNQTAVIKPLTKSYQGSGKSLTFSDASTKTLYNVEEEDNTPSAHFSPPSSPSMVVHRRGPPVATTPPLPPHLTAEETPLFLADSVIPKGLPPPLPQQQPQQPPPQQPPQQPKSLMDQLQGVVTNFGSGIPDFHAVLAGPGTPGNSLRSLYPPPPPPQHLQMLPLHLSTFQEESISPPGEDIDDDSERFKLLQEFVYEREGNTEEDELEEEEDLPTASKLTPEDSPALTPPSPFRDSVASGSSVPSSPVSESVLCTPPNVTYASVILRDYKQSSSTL
Sequence of Metabotropic glutamate receptor 2 (Rattus norvegicus) (P31421 19-872 limits assumed): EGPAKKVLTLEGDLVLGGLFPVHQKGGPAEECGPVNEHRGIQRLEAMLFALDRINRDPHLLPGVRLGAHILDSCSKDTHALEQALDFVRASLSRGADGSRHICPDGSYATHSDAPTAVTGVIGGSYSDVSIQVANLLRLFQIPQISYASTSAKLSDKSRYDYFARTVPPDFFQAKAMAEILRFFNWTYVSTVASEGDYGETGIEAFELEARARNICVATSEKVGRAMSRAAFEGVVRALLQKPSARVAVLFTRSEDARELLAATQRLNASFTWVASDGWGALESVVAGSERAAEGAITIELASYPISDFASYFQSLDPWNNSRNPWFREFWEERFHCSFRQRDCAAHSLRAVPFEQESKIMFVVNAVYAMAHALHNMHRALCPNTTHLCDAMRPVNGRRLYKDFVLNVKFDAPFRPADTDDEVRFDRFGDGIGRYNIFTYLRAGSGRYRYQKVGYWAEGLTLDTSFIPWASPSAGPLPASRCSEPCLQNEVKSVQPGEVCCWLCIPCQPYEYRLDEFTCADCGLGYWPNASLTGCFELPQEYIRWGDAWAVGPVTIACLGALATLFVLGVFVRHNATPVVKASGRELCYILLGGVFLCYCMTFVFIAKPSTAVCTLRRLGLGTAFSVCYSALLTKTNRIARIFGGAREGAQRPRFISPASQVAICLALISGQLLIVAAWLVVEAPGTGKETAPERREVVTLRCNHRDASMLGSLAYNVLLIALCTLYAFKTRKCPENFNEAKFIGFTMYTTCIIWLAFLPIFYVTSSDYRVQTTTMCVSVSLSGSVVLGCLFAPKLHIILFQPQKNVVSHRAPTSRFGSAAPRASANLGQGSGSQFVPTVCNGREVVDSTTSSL
Sequence of Metabotropic glutamate receptor 2 (P31421 whole entry): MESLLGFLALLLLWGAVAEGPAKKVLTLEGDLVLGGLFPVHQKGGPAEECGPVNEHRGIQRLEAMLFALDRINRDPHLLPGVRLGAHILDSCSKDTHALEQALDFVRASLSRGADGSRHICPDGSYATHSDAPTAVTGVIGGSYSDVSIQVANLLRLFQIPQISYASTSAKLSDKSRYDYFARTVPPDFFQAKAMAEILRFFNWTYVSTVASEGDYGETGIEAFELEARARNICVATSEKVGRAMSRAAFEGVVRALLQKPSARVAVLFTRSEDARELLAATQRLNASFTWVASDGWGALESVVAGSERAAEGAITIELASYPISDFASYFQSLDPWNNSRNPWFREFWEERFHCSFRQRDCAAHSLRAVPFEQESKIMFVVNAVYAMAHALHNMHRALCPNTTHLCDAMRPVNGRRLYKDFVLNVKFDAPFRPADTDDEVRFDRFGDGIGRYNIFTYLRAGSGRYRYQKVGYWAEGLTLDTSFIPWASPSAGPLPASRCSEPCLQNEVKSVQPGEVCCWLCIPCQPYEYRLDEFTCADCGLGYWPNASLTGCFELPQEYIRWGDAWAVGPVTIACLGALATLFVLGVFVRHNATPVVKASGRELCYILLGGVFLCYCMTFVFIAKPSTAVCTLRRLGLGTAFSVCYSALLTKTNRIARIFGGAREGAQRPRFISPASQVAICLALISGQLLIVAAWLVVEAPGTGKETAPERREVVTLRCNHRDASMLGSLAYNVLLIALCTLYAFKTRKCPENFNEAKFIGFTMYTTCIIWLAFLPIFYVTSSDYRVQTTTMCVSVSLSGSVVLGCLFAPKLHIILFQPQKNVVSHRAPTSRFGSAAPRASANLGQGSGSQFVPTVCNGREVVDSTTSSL
Sequence of Metabotropic glutamate receptor 1 (Rattus norvegicus) (P23385 19-1199 limits assumed): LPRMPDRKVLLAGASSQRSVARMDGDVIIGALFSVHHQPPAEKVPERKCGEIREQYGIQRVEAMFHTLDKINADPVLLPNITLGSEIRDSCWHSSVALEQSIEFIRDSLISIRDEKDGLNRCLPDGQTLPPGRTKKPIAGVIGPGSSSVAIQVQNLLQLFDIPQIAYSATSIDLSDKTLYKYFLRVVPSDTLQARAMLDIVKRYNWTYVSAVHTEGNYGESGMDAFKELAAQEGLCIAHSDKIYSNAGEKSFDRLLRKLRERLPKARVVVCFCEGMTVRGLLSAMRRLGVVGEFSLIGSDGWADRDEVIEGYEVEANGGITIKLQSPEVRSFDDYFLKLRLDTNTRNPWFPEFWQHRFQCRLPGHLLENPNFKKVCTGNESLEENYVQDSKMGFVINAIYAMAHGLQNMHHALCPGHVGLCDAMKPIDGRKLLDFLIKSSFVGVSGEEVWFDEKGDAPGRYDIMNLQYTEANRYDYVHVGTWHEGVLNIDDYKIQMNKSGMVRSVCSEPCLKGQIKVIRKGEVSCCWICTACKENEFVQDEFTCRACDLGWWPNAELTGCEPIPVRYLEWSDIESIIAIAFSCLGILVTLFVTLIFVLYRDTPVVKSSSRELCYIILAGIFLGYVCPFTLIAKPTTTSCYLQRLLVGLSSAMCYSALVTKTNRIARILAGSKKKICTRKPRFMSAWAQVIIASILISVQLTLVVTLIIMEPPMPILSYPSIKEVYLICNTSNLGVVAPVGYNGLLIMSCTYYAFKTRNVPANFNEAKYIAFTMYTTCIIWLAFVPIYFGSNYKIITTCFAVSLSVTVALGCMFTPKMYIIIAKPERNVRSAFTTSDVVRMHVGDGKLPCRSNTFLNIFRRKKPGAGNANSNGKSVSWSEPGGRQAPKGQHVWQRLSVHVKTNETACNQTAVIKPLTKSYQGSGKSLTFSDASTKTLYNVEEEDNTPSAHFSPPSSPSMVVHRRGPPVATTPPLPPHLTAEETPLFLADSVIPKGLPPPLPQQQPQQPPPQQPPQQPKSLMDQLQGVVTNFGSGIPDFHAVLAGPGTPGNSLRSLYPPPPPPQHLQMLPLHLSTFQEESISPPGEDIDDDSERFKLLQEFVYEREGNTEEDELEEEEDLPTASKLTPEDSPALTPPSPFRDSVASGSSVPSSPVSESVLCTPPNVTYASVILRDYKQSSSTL

Row | SMILES | Rmax [1] [%] | Rmax [2] [%] | Rmax [3] [%] | EC50 [4] [µM] | EC50 [5] [µM] | EC50 [6] [µM] | Rmax [7] [%] | EC50 [8] [µM]
1 | N[C@@H](C[C@H](O)C(=O)O)C(=O)O | 94 | 60 | 95 | 137 | 53 | 11 |  | 
2 | N[C@@H](C[C@@H](O)C(=O)O)C(=O)O | 54 |  | 70 | 161 | 69 | 373 | 52 | 
3 | N[C@@H](CCC(=O)O)C(=O)O [GLUTAMIC ACID] |  |  |  |  |  |  |  | 8

From ChEMBL document CHEMBL1134758, “New probes of the agonist binding site of metabotropic glutamate receptors” (Bioorg Med Chem Lett, 2001)
